# What was measured:
# [1] = system: CD34+ cells; test: Scaled-up pomalidomide-based CD34+ expansion in gas-permeable culture bag; assay type: cell-based, human
# Method: CD34^+ cells were seeded in 10^4/mL pomalidomide-supplemented medium in a flexible, gas-permeable fluorocarbon culture bag (American Fluoroseal). After 7 days of incubation, the culture was centrifuged and exchanged with fresh pomalidomide-supplemented medium at three times the initial volume. By day 12, TNC and CD34^+ expansion were 350 (range: 250-700) and 200 (range: 100-450) fold, respectively (FIG. 4). Viability was 86% (range: 80-90%) by trypan blue. A total of 20 million CD34^+ cells were harvested.
# [2] = system: human UCB derived CD34+ cells; test: Short-term serum-free, cytokine supplemented expansion of UCB derived CD34+ cells with pomalidomide; assay type: cell-based; settings: for CD34+ phenotype in the expanded population / CD133 level of expanded CD34+ cells / expanded CD34+ cells that are CD38 negative / total nucleated cell expansion: pomalidomide 2.7 μg/mL, 12 days
# Method: The ability of pomalidomide to enhance the expansion of human UCB derived CD34^+ cells in a short-term serum-free, cytokine supplemented culture system was evaluated. CD34^+ progenitor cells were enriched from cryopreserved UCB units to >90% purity and seeded (104 CD34^+ cells) in 1 mL of growth medium, which consists of IMDM plus serum substitute BIT (BSA, recombinant human insulin and transferrin, 20%), in the presence of SCF (50 ng/mL), Flt-3 ligand (50 ng/mL), and IL-3 (10 ng/mL). Pomalidomide, dissolved in DMSO, was supplemented at 2.7 μg/mL. The culture was incubated at 37° C., 5% CO2 for 12 days, with fresh medium added at day 7. Pomalidomide-free cultures with or without DMSO (0.05% v/v) were used as controls.
# [3] = day 12, culture bag, seeded 10^4/mL
compound,measurement,setting,value
"Nc1cccc2c1C(=O)N(C1CCC(=O)NC1=O)C2=O (stereo not shown) [pomalidomide, 4-(Amino)-2-(2,6-dioxo(3-piperidyl))-isoindoline-1,3-dione]",ex-vivo expansion of placental derived CD34+ progenitors,[1],significantly enhanced
same,Viability by trypan blue,"[1]; day 12, culture bag",86% (range: 80-90%)
same,total CD34+ cells harvested,"[1]; day 12, culture bag",20 million
same,CD34+ expansion,[1]; [3],200 (range: 100-450) fold
same,TNC expansion,[1]; [3],350 (range: 250-700) fold
same,CD34+ expression in the expanded population versus control,[2]; first experiment,significantly higher CD34^+ expression
same,CD38 expression on cultured cells,[2]; first experiment,appeared to down-regulate CD38 expression
same,cumulative colony forming units relative to expanded controls,[2]; first experiment,substantial improvement
same,CD34+ phenotype in the expanded population,[2]; first experiment,40-60%
same,CD133 level of expanded CD34+ cells,[2]; first experiment,15%
same,expanded CD34+ cells that are CD38 negative,[2]; first experiment,95%
same,total nucleated cell expansion,[2]; first experiment,200-350 fold
same,CD34+ phenotype in the expanded population,[2]; second similar experiment,40-60%
same,CD133 level of expanded CD34+ cells,[2]; second similar experiment,11.5%
same,expanded CD34+ cells that are CD38 negative,[2]; second similar experiment,97%
same,total nucleated cell expansion,[2]; second similar experiment,200-350 fold
same,CD34+ expression in the expanded population versus control,[2]; second similar experiment,significantly higher CD34^+ expression
same,CD38 expression on cultured cells,[2]; second similar experiment,appeared to down-regulate CD38 expression
same,cumulative colony forming units relative to expanded controls,[2]; second similar experiment,substantial improvement

# — patent publication US9255248B2, “Method of producing erythrocytes without feeder cells” (Anthrogenesis Corporation, priority 2009, dated 2016)
